# Experimental data taken from patent US11840686B2, “Modulation of prekallikrein (PKK) expression” (Ionis Pharmaceuticals, Inc., priority 2013, dated 2023).
# Strand notation (5' to 3'): a small letter for the sugar, then the base; units joined by * are phosphorothioate-linked, units joined directly phosphodiester-linked; [ ] holds rarer units or linkages, { } end groups; capitals alone tell only the bases. e = 2'-O-(2-methoxyethyl) (MOE); [5mC] = 5-methylcytosine; d = 2'-deoxy (DNA)
# Tested on: human PKK mRNA
# Assay: Antisense inhibition of human PKK mRNA in HepaRG cells, 3,000 nM (Example 1)
# Assay type: cell-based
# Conditions: Table 1; PKK mRNA, HepaRG cells, 3,000 nM, electroporation, ~24 h, relative to untreated control cells
# Method: Antisense oligonucleotides were designed targeting a PKK nucleic acid and were tested for their effects on PKK mRNA in vitro. HepaRG™ cells, which are terminally differentiated hepatic cells derived from a human hepatic progenitor cell line and retain many characteristics of primary human hepatocytes (Lubberstedt M. et al., J. Pharmacol. Toxicol. Methods 2011 63: 59-68), were used in the screen.
# The chimeric antisense oligonucleotides in the tables below were designed as 5-10-5 MOE gapmers. The gapmers are 20 nucleosides in length, wherein the central gap segment comprises of ten 2′-deoxynucleosides and is flanked by wing segments on the 5′ direction and the 3′ direction comprising five nucleosides each. Each nucleoside in the 5′ wing segment and each nucleoside in the 3′ wing segment has a 2′-O-methoxyethyl modification. The internucleoside linkages throughout each gapmer are phosphorothioate linkages. All cytosine residues throughout each gapmer are 5-methylcytosines. “Start site” indicates the 5′-most nucleoside to which the gapmer is targeted in the human gene sequence. “Stop site” indicates the 3′-most nucleoside to which the gapmer is targeted in the human gene sequence.
# Cultured HepaRG™ cells at a density of 20,000 cells per well were transfected using electroporation with 3,000 nM antisense oligonucleotide. After a treatment period of approximately 24 hours, RNA was isolated from the cells and PKK mRNA levels were measured by quantitative real-time PCR. Human primer probe set RTS3454 (forward sequence […], designated herein as SEQ ID NO: 20; reverse sequence […], designated herein as SEQ ID NO: 21; probe sequence […], designated herein as SEQ ID NO: 22) was used to measure mRNA levels. PKK mRNA levels were adjusted according to total RNA content, as measured by RIBOGREEN®. The antisense oligonucleotides were tested in a series of experiments that had similar culture conditions. Results are presented as percent inhibition of PKK, relative to untreated control cells.
row,Substance,% inhibition [%]
1,530932 (antisense eT*eG*eT*e[5mC]*eA*d[5mC]*dT*dT*dA*dA*dA*dA*dA*dT*dG*eA*eA*e[5mC]*eG*eG) [compound 530932],52
2,530934 (antisense e[5mC]*eT*eT*e[5mC]*eT*dT*dG*dG*dA*dG*dG*dT*dG*dA*dG*eT*e[5mC]*eT*e[5mC]*eT) [compound 530934],54
3,530935 (antisense eG*e[5mC]*eT*eT*eG*dA*dA*dT*dA*dA*dA*dA*dT*d[5mC]*dA*eT*eT*e[5mC]*eT*eG) [compound 530935],0
4,530936 (antisense eT*eG*e[5mC]*eT*eT*dG*d[5mC]*dT*dT*dG*dA*dA*dT*dA*dA*eA*eA*eT*e[5mC]*eA) [compound 530936],27
5,530937 (antisense eT*eA*eA*eG*eT*dT*dG*d[5mC]*dT*dT*dG*d[5mC]*dT*dT*dG*eA*eA*eT*eA*eA) [compound 530937],0
6,530938 (antisense eG*eG*eA*eA*eA*dT*dG*dA*dA*dA*dT*dA*dA*dG*dT*eT*eG*e[5mC]*eT*eT) [compound 530938],11
7,530939 (antisense eA*eA*e[5mC]*eA*eA*dG*dG*dA*dA*dA*dT*dG*dA*dA*dA*eT*eA*eA*eG*eT) [compound 530939],0
8,530940 (antisense eT*eA*eG*e[5mC]*eA*dA*dA*d[5mC]*dA*dA*dG*dG*dA*dA*dA*eT*eG*eA*eA*eA) [compound 530940],7
9,530941 (antisense eA*eA*e[5mC]*eT*eG*dT*dA*dG*d[5mC]*dA*dA*dA*d[5mC]*dA*dA*eG*eG*eA*eA*eA) [compound 530941],22
10,530942 (antisense e[5mC]*eA*eG*eG*eA*dA*dA*d[5mC]*dT*dG*dT*dA*dG*d[5mC]*dA*eA*eA*e[5mC]*eA*eA) [compound 530942],22
11,530943 (antisense eA*eT*e[5mC]*e[5mC]*eA*d[5mC]*dA*dG*dG*dA*dA*dA*d[5mC]*dT*dG*eT*eA*eG*e[5mC]*eA) [compound 530943],56
12,530944 (antisense e[5mC]*eA*eG*eA*e[5mC]*dA*dT*d[5mC]*d[5mC]*dA*d[5mC]*dA*dG*dG*dA*eA*eA*e[5mC]*eT*eG) [compound 530944],0
13,530945 (antisense eA*eT*e[5mC]*e[5mC]*e[5mC]*d[5mC]*dA*d[5mC]*d[5mC]*dT*d[5mC]*dT*dG*dA*dA*eG*eA*eA*eG*eG) [compound 530945],0
14,530946 (antisense eT*eA*e[5mC]*eA*eT*d[5mC]*d[5mC]*d[5mC]*d[5mC]*dA*d[5mC]*d[5mC]*dT*d[5mC]*dT*eG*eA*eA*eG*eA) [compound 530946],0
15,530947 (antisense eG*eA*eA*eG*e[5mC]*dT*dA*d[5mC]*dA*dT*d[5mC]*d[5mC]*d[5mC]*d[5mC]*dA*e[5mC]*e[5mC]*eT*e[5mC]*eT) [compound 530947],27
16,530948 (antisense eA*e[5mC]*eA*eT*eG*dG*dA*dA*dG*d[5mC]*dT*dA*d[5mC]*dA*dT*e[5mC]*e[5mC]*e[5mC]*e[5mC]*eA) [compound 530948],35
17,530949 (antisense eG*eG*eT*eG*eT*dA*d[5mC]*dA*dT*dG*dG*dA*dA*dG*d[5mC]*eT*eA*e[5mC]*eA*eT) [compound 530949],31
18,530950 (antisense eA*e[5mC]*e[5mC]*eT*eT*dG*dG*dG*dT*dG*dG*dA*dA*dT*dG*eT*eG*e[5mC]*eA*e[5mC]) [compound 530950],47
19,530951 (antisense e[5mC]*eA*eA*eA*e[5mC]*dA*d[5mC]*d[5mC]*dT*dT*dG*dG*dG*dT*dG*eG*eA*eA*eT*eG) [compound 530951],49
20,530952 (antisense e[5mC]*eT*eG*eA*eA*dT*dA*dG*d[5mC]*dA*dA*dA*d[5mC]*dA*d[5mC]*e[5mC]*eT*eT*eG*eG) [compound 530952],38
21,530953 (antisense eG*eA*eA*eA*eA*d[5mC]*dT*dG*dA*dA*dT*dA*dG*d[5mC]*dA*eA*eA*e[5mC]*eA*e[5mC]) [compound 530953],7
22,530954 (antisense eT*eG*eG*eA*eA*dG*dA*dA*dA*dA*d[5mC]*dT*dG*dA*dA*eT*eA*eG*e[5mC]*eA) [compound 530954],47
23,530955 (antisense e[5mC]*eA*eA*eA*e[5mC]*d[5mC]*dT*dT*dT*dT*d[5mC]*dT*d[5mC]*d[5mC]*dA*eT*eG*eT*e[5mC]*eA) [compound 530955],55

row,Substance,% inhibition [%]
1,530956 (antisense eA*e[5mC]*eA*e[5mC]*eT*dA*dT*d[5mC]*dT*dT*dT*d[5mC]*dA*dA*dG*eA*eA*eG*e[5mC]*eA) [compound 530956],57
2,530957 (antisense eG*eG*e[5mC]*eA*eA*dG*d[5mC]*dA*d[5mC]*dT*dT*dA*dT*dT*dT*eG*eA*eT*eG*eA) [compound 530957],56
3,530958 (antisense eT*eT*eA*eA*eA*dA*dT*dT*dG*dA*d[5mC]*dT*d[5mC]*d[5mC]*dT*e[5mC]*eT*e[5mC]*eA*eT) [compound 530958],60
4,530960 (antisense eA*eT*eT*e[5mC]*eT*dT*d[5mC]*dA*dA*d[5mC]*dA*d[5mC]*dT*dG*d[5mC]*eT*eA*eA*e[5mC]*e[5mC]) [compound 530960],58
5,530961 (antisense eT*eT*eG*eG*e[5mC]*dA*dT*dT*d[5mC]*dT*dT*d[5mC]*dA*dA*d[5mC]*eA*e[5mC]*eT*eG*e[5mC]) [compound 530961],88
6,530962 (antisense e[5mC]*e[5mC]*eT*eT*eT*dT*dT*dT*dG*dG*d[5mC]*dA*dT*dT*d[5mC]*eT*eT*e[5mC]*eA*eA) [compound 530962],64
7,530963 (antisense eT*eG*eG*eT*eG*d[5mC]*dA*d[5mC]*d[5mC]*dT*dT*dT*dT*dT*dT*eG*eG*e[5mC]*eA*eT) [compound 530963],78
8,530964 (antisense e[5mC]*eT*eT*e[5mC]*eA*dG*dT*dG*dA*dG*dA*dA*dT*d[5mC]*d[5mC]*eA*eG*eA*eT*eT) [compound 530964],44
9,530966 (antisense eA*eA*eT*eT*eT*d[5mC]*dT*dG*dA*dA*dA*dG*dG*dG*d[5mC]*eA*e[5mC]*eA*eG*eG) [compound 530966],58
10,530968 (antisense e[5mC]*eA*eA*eG*eA*dT*dG*d[5mC]*dT*dG*dG*dA*dA*dG*dA*eT*eG*eT*eT*e[5mC]) [compound 530968],18
11,530969 (antisense eG*eT*eG*e[5mC]*e[5mC]*dA*d[5mC]*dT*dT*dT*d[5mC]*dA*dG*dA*dT*eG*eT*eT*eT*eT) [compound 530969],0
12,530972 (antisense eG*eT*eA*eG*eA*dG*dG*dA*dA*d[5mC]*dT*dT*dG*dG*dT*eG*eT*eG*e[5mC]*e[5mC]) [compound 530972],42
13,530973 (antisense eG*eA*eG*eG*eA*dG*dT*dA*dG*dA*dG*dG*dA*dA*d[5mC]*eT*eT*eG*eG*eT) [compound 530973],52
14,530974 (antisense eT*eT*e[5mC]*eT*eT*dG*dA*dG*dG*dA*dG*dT*dA*dG*dA*eG*eG*eA*eA*e[5mC]) [compound 530974],18
15,530975 (antisense eG*eT*eG*eT*eT*dT*dT*d[5mC]*dT*dT*dG*dA*dG*dG*dA*eG*eT*eA*eG*eA) [compound 530975],41
16,530976 (antisense eA*eT*eA*eT*eG*dG*dT*dG*dT*dT*dT*dT*d[5mC]*dT*dT*eG*eA*eG*eG*eA) [compound 530976],26
17,530977 (antisense eT*e[5mC]*e[5mC]*eA*eG*dA*dT*dA*dT*dG*dG*dT*dG*dT*dT*eT*eT*e[5mC]*eT*eT) [compound 530977],55
18,530978 (antisense e[5mC]*eT*eA*eT*eA*dT*d[5mC]*d[5mC]*dA*dG*dA*dT*dA*dT*dG*eG*eT*eG*eT*eT) [compound 530978],0
19,530979 (antisense eG*eG*eT*eT*eA*dA*dA*dA*dG*dG*d[5mC]*dT*dA*dT*dA*eT*e[5mC]*e[5mC]*eA*eG) [compound 530979],35
20,530980 (antisense eT*eT*eG*e[5mC]*eA*dG*dG*dT*dT*dA*dA*dA*dA*dG*dG*e[5mC]*eT*eA*eT*eA) [compound 530980],29
21,530981 (antisense eT*eT*e[5mC]*eT*eT*dT*dT*dG*d[5mC]*dA*dG*dG*dT*dT*dA*eA*eA*eA*eG*eG) [compound 530981],0
22,530982 (antisense eT*eA*eA*eA*eG*dT*dT*d[5mC]*dT*dT*dT*dT*dG*d[5mC]*dA*eG*eG*eT*eT*eA) [compound 530982],0
